For orientation: IC50 means the midpoint of a concentration-inhibition curve.

The assay addresses T1, Recombinant human renin (Homo sapiens, UniProt P00797).
T1 construct: isolate the active form (residues 67-406); made in house
T1 sequence (P00797 67-406): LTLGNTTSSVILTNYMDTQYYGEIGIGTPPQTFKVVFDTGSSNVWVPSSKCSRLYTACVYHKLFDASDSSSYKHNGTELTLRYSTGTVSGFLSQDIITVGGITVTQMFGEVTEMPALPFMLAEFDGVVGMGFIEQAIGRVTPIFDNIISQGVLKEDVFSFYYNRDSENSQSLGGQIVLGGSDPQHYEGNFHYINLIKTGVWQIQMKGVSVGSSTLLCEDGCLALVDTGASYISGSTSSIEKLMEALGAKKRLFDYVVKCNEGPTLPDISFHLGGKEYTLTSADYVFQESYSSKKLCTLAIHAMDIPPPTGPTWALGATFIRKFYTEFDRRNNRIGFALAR
In words: In vitro enzymatic activity assay of renin inhibitors (fluorogenic peptide substrate). Type of assay: biochemical. The note with it: recombinant human renin 3 nM, substrate 1 μM, 37° C., pH 7.4, fluorescence; read-out: IC50 of Exemplified Compounds Against Renin. From the text:
Test compounds in varying concentrations may be reacted with recombinant human renin in the presence of substrate, e.g., QXL520-γ-Abu-Ile-His-Pro-Phe-His-Leu-Val-Ile-His-Thr-Lys (HiLyteFluo488)-Arg-OH (Anaspec, San Jose, Calif.). The reaction can be followed kinetically using fluorescence (excitation λ=485 nm; emission λ=538 nm) Inhibition constants (IC50) may be calculated by non-linear curve fitting of the compound concentrations and fluorescence intensities to the standard IC50 equation.
Solutions of test compounds in varying concentrations (≦2 mM final concentration) are prepared in dimethyl sulfoxide (DMSO) and then diluted into assay buffer comprising 50 mM Hepes, 1 mM EDTA, 1 mM DTT, 0.1 mg/mL BSA, 0.01% Brij35, pH 7.4. Alternatively, the assay can be performed with a high BSA concentration, wherein the buffer contains an additional 2% BSA.
Recombinant human renin (3 nM final concentration) is added to the dilutions and pre-incubated with the compounds for 10 minutes at 37° C. As described in Examples A-C above, human renin can be obtained by expressing preprorenin (residue 1-406) in mammalian cells, treating the prorenin (residues 24-406) contained in the culture supernatant with trypsin, and isolate the active form (residues 67-406). After pre-incubation, the reaction is initiated with 1 μM of substrate QXL520-γ-Abu-Ile-His-Pro-Phe-His-Leu-Val-Ile-His-Thr-Lys (HiLyteFluo488)-Arg-OH (Anaspec, San Jose, Calif.). The final DMSO in the assay is 5%. The total volume of the reaction mixture is 20 μL, which can be placed on Greiner 384-well small volume plates.
Renin activity may be determined via fluorescence (excitation λ=485 nm; emission λ=538 nm), e.g., on a Molecular Devices SPECTROmax GEMINI XPS. The fluorescence
intensity is determined upon the addition of substrate and determined again after incubation at 37° C. for one hour. The fluorescence intensity of a blank (no inhibition) using vehicle alone is also determined. Renin activity is linearly proportional to the change in fluorescence observed (final-initial).
The percent inhibition of renin at a given compound concentration is defined as: 100%×[1−(Fcompound/Fblank)] where Fcompound is the observed fluorescence at a given concentration of test compound and Fblank is the observed fluorescence in the presence of vehicle alone.
The pIC50 value (negative log of the molar concentration of the compound that produces 50% inhibition) of a test compound is calculated by non-linear least squares curve fitting of the equation: Percent Inhibition=100%/(1+(10−pIC50/10 log [I])) to percent inhibition versus compound concentration. The 50% inhibitory concentration (IC50) of a test compound is calculated by raising 10 to the negative pIC50 (10-pIC50).

As to `O=C(C1=C(c2cccc(-c3ccccc3)c2)CCNC1CO)N(Cc1cccc(Cl)c1Cl)C1CC1` (stereo not shown) [Compound 1, 4-(biphenyl-3-yl)-N-cyclopropyl-N-(2,3-dichlorobenzyl)-2-(hydroxymethyl)-1,2,5,6-tetrahydropyridine-3-carboxamide], the half-maximal inhibitory concentration (IC50) was more than 1000 nM.
With `O=C(C1=C(c2ccc(OCCOc3ccccc3Cl)cc2)CCNC1CO)N(Cc1cccc(Cl)c1Cl)C1CC1` (stereo not shown) [Compound 2, 4-(4-(2-(2-chlorophenoxy)ethoxy)phenyl)-N-cyclopropyl-N-(2,3-dichlorobenzyl)-2-(hydroxymethyl)-1,2,5,6-tetrahydropyridine-3-carboxamide], the IC50 was more than 1000 nM.
The same measure for `COCOC[C@H]1NCCC(c2cccc(-c3ccccc3)c2)=C1C(=O)N(Cc1cccc(Cl)c1Cl)C1CC1` [Compound 4, (S)-4-(biphenyl-3-yl)-N-cyclopropyl-N-(2,3-dichlorobenzyl)-2-((methoxymethoxy)methyl)-1,2,5,6-tetrahydropyridine-3-carboxamide]: 100 to 1000 nM.
Under `COCOC[C@H]1NCCC(c2ccc(OCCOc3c(Cl)cccc3Cl)cc2)=C1C(=O)N(Cc1cccc(Cl)c1Cl)C1CC1` [Compound 5, (S)-N-cyclopropyl-N-(2,3-dichlorobenzyl)-4-(4-(2-(2,6-dichlorophenoxy)ethoxy)phenyl)-2-((methoxymethoxy)methyl)-1,2,5,6-tetrahydropyridine-3-carboxamide] stands less than 100 nM; under `O=C(C1=C(c2ccc(OCCOc3c(Cl)cccc3Cl)cc2)CCN[C@@H]1CO)N(Cc1cccc(Cl)c1Cl)C1CC1` [Compound 6, (S)-N-cyclopropyl-N-(2,3-dichlorobenzyl)-4-(4-(2-(2,6-dichlorophenoxy)ethoxy)phenyl)-2-(hydroxymethyl)-1,2,5,6-tetrahydropyridine-3-carboxamide], less than 100 nM; under `Cc1cccc(C)c1OCCOc1ccc(C2=C(C(=O)N(Cc3cccc(Cl)c3Cl)C3CC3)[C@@H](CO)NCC2)cc1` [Compound 7, (S)-N-cyclopropyl-N-(2,3-dichlorobenzyl)-4-(4-(2-(2,6-dimethylphenoxy)ethoxy)phenyl)-2-(hydroxymethyl)-1,2,5,6-tetrahydropyridine-3-carboxamide], less than 100 nM.
Regarding `COCOC[C@H]1NCCC(c2ccc(OCCOc3c(C)cccc3C)cc2)=C1C(=O)N(Cc1cccc(Cl)c1Cl)C1CC1` [Compound 8, (S)-N-cyclopropyl-N-(2,3-dichlorobenzyl)-4-(4-(2-(2,6-dimethylphenoxy)ethoxy)phenyl)-2-((methoxymethoxy)methyl)-1,2,5,6-tetrahydropyridine-3-carboxamide], the half-maximal inhibitory concentration (IC50) was less than 100 nM.
For `Cc1cc(Cl)c(OCCOc2ccc(C3=C(C(=O)N(Cc4cccc(Cl)c4Cl)C4CC4)[C@@H](CO)NCC3)cc2)c(Cl)c1` [Compound 9, (S)-N-cyclopropyl-4-(4-(2-(2,6-dichloro-4-methylphenoxy)ethoxy)phenyl)-N-(2,3-dichlorobenzyl)-2-(hydroxymethyl)-1,2,5,6-tetrahydropyridine-3-carboxamide], the 50% inhibitory concentration (IC50) was less than 100 nM.
The same measure for `COCOC[C@H]1NCCC(c2ccc(OCCOc3c(Cl)cc(C)cc3Cl)cc2)=C1C(=O)N(Cc1cccc(Cl)c1Cl)C1CC1` [Compound 10, (S)-N-cyclopropyl-4-(4-(2-(2,6-dichloro-4-methylphenoxy)ethoxy)phenyl)-N-(2,3-dichlorobenzyl)-2-((methoxymethoxy)methyl)-1,2,5,6-tetrahydropyridine-3-carboxamide]: less than 100 nM; for `O=C(C1=C(c2ccc(OCCOc3c(F)ccc(F)c3Cl)cc2)CCN[C@@H]1CO)N(Cc1cccc(Cl)c1Cl)C1CC1` [Compound 11, (S)-4-(4-(2-(2-chloro-3,6-difluorophenoxy)ethoxy)phenyl)-N-cyclopropyl-N-(2,3-dichlorobenzyl)-2-(hydroxymethyl)-1,2,5,6-tetrahydropyridine-3-carboxamide]: less than 100 nM.
In the case of `O=C(C1=C(c2ccc(O)cc2)CCN[C@@H]1CO)N(Cc1cccc(Cl)c1Cl)C1CC1` [Compound 12, (S)-N-cyclopropyl-N-(2,3-dichlorobenzyl)-2-(hydroxymethyl)-4-(4-hydroxyphenyl)-1,2,5,6-tetrahydropyridine-3-carboxamide], the half-maximal inhibitory concentration (IC50) is more than 1000 nM.
The same measure for `COc1ccc(C2=C(C(=O)N(Cc3cccc(Cl)c3Cl)C3CC3)[C@@H](CO)NCC2)cc1` [Compound 13, (S)-N-cyclopropyl-N-(2,3-dichlorobenzyl)-2-(hydroxymethyl)-4-(4-methoxyphenyl)-1,2,5,6-tetrahydropyridine-3-carboxamide]: more than 1000 nM; for `NC[C@H]1NCCC(c2ccc(OCCOc3c(Cl)cccc3Cl)cc2)=C1C(=O)N(Cc1cccc(Cl)c1Cl)C1CC1` [Compound 14, (S)-2-(aminomethyl)-N-cyclopropyl-N-(2,3-dichlorobenzyl)-4-(4-(2-(2,6-dichlorophenoxy)ethoxy)phenyl)-1,2,5,6-tetrahydropyridine-3-carboxamide]: 100 to 1000 nM.

(Values after US8129538B1, “Renin inhibitors” (Takeda Pharmaceutical Company Limited, priority 2007, dated 2012).)
